This is an account of results in ChEMBL document CHEMBL1143228, “Inhibition of lipopolysaccharide-induced inducible nitric oxide synthase and cyclooxygenase-2 expression by xanthanolides isolated from Xanthium strumarium” (Bioorg Med Chem Lett, 2008).

The source made the active and inactive calls. The calls are words filed in the database; no cut-off is given here.

Test [1] concerns BV-2. The test is described as follows: Inhibition of COX2 expression in LPS-stimulated mouse BV2 cells after 20 hrs by Western blot analysis. It counts as functional, cell-based. (In general: A western blot detects proteins with antibodies after separation by electrophoresis.)
The subject of test [2] is BV-2. The experiment in a line: Inhibition of COX2 mRNA expression in LPS-stimulated mouse BV2 cells at 20 uM after 4 hrs by RT-PCR. The format is functional, cell-based.
For test [3], the system named is BV-2. The test is described as follows: Inhibition of iNOS expression in LPS-stimulated mouse BV2 cells at 20 uM after 20 hrs by Western blot analysis. The format is functional, cell-based.
Test [4] deals with BV-2. The test is described as follows: Inhibition of IkappaB alpha degradation in LPS-induced mouse BV2 cells at 20 uM after 30 mins by Western blot analysis. It counts as functional, cell-based.
Test [5] concerns BV-2. The test is described as follows: Inhibition of iNOS mRNA expression in LPS-stimulated mouse BV2 cells at 20 uM after 4 hrs by RT-PCR. The format is functional, cell-based.
Test [6] deals with BV-2. The test is described as follows: Inhibition of NO production in LPS-activated mouse BV2 cells by […]. It counts as functional, cell-based. Background: An ELISA detects its analyte on a solid surface through an enzyme-linked reagent.
For test [7], the system named is BV-2. The test is described as follows: Inhibition of NF-kappaB activity in LPS-stimulated mouse BV2 cells at 10 uM after 1 hr by luciferase reporter gene assay. The format is cell-based. On the technique in general: Reporter assays use an easily measured gene product as a stand-in for the process of interest.

Turning to `C=C1C(=O)O[C@H]2C[C@H](C)C(CCC(C)=O)=CC[C@H]12`, the outcome in test [1], in test [2], in test [3], in test [4] and in test [5] was Active. The IC50 – broadly, the concentration needed to halve the response being measured – in test [6] came out at 11.2 µM.

For the compound `C=C1C(=O)O[C@H]2C[C@H](C)C(/C=C/C(C)=O)=CC[C@H]12`, the result in test [1], in test [7], in test [2], in test [3], in test [4] and in test [5] was Active. It took 0.47 µM to reach half-maximal inhibition in test [6] (IC50).

`C=C(C(=O)O)[C@H]1CC=C(/C=C/C(C)=O)[C@@H](C)CC1` yielded an IC50 in test [6] of 136 µM.
